PubChem BioAssay (NCI)
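Test compounds were applied to cells in 96-well plates for 48 hours at 5 doses. TGI: concentration producing complete growth inhibition.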

Experiments:
Assay in all cases: growth of human tumour cells (NCI), 48 h
K-562 leukemia = system: K-562 leukemia
M14 melanoma = system: M14 melanoma
HOP-62 NSCLC = system: HOP-62 NSCLC
SF-295 CNS = system: SF-295 CNS
HS 578T breast = system: HS 578T breast
A498 renal = system: A498 renal
A549 NSCLC = system: A549 NSCLC
OVCAR-5 ovarian = system: OVCAR-5 ovarian
KM12 colon = system: KM12 colon
MDA-N = system: MDA-N
MDA-MB-435 = system: MDA-MB-435
RXF 393 renal = system: RXF 393 renal
MCF7 breast = system: MCF7 breast
HOP-92 NSCLC = system: HOP-92 NSCLC
OVCAR-8 ovarian = system: OVCAR-8 ovarian
NCI/ADR-RES ovarian = system: NCI/ADR-RES ovarian
IGROV1 ovarian = system: IGROV1 ovarian
COLO 205 colon = system: COLO 205 colon
CAKI-1 renal = system: CAKI-1 renal
U251 CNS = system: U251 CNS
SW-620 colon = system: SW-620 colon
SN12C renal = system: SN12C renal
NCI-H226 lung = system: NCI-H226 lung
PC-3 prostate = system: PC-3 prostate
SNB-75 CNS = system: SNB-75 CNS
DU-145 prostate = system: DU-145 prostate
NCI-H522 lung = system: NCI-H522 lung
HCT-15 colon = system: HCT-15 colon
RPMI-8226 leukemia = system: RPMI-8226 leukemia
MALME-3M melanoma = system: MALME-3M melanoma
SK-OV-3 ovarian = system: SK-OV-3 ovarian
OVCAR-4 ovarian = system: OVCAR-4 ovarian
NCI-H23 lung = system: NCI-H23 lung
SR leukemia = system: SR leukemia
HL-60(TB) leukemia = system: HL-60(TB) leukemia
MDA-MB-231 breast = system: MDA-MB-231 breast
SNB-19 CNS = system: SNB-19 CNS
LOX IMVI melanoma = system: LOX IMVI melanoma
CCRF-CEM leukemia = system: CCRF-CEM leukemia
MOLT-4 leukemia = system: MOLT-4 leukemia
HT29 colon = system: HT29 colon
HCT-116 colon = system: HCT-116 colon
OVCAR-3 ovarian = system: OVCAR-3 ovarian
786-0 renal = system: 786-0 renal
SK-MEL-28 melanoma = system: SK-MEL-28 melanoma
UO-31 renal = system: UO-31 renal
SK-MEL-5 melanoma = system: SK-MEL-5 melanoma
ACHN renal = system: ACHN renal
TK-10 renal = system: TK-10 renal
BT-549 breast = system: BT-549 breast
UACC-257 melanoma = system: UACC-257 melanoma
EKVX NSCLC = system: EKVX NSCLC
SK-MEL-2 melanoma = system: SK-MEL-2 melanoma
T-47D breast = system: T-47D breast
SF-268 CNS = system: SF-268 CNS
SF-539 CNS = system: SF-539 CNS
HCC-2998 colon = system: HCC-2998 colon
UACC-62 melanoma = system: UACC-62 melanoma
NCI-H460 lung = system: NCI-H460 lung

## Cc1ccc2nc(-c3ccc(-n4c(C)nc(=O)c(-c5ccc(F)cc5)c4C)cc3)sc2c1
K-562 leukemia
  TGI: 45.4 µM
M14 melanoma
  TGI: 26.4 µM
HOP-62 NSCLC
  TGI: 45.5 µM
SF-295 CNS
  TGI: 33.1 µM
HS 578T breast
  TGI: 96.9 µM
A498 renal
  TGI: 32.9 µM
A549 NSCLC
  TGI: 35.6 µM
OVCAR-5 ovarian
  TGI: 35.9 µM
KM12 colon
  TGI: 38.4 µM
MDA-N
  TGI: 32.2 µM
MDA-MB-435
  TGI: 32.2 µM
RXF 393 renal
  TGI: 23.2 µM
MCF7 breast
  TGI: 34.7 µM
HOP-92 NSCLC
  TGI: 36.9 µM
OVCAR-8 ovarian
  TGI: 42.9 µM
NCI/ADR-RES ovarian
  TGI: 35 µM
IGROV1 ovarian
  TGI: 31.4 µM
COLO 205 colon
  TGI: 20.5 µM
CAKI-1 renal
  TGI: 35.1 µM
U251 CNS
  TGI: 30.7 µM
SW-620 colon
  TGI: 57.2 µM
SN12C renal
  TGI: 33.8 µM
NCI-H226 lung
  TGI: 41.6 µM
PC-3 prostate
  TGI: 25.1 µM
SNB-75 CNS
  TGI: 27.4 µM
DU-145 prostate
  TGI: 30 µM
NCI-H522 lung
  TGI: 35.2 µM
HCT-15 colon
  TGI: 34.4 µM
RPMI-8226 leukemia
  TGI: 39.6 µM
MALME-3M melanoma
  TGI: 32.5 µM
SK-OV-3 ovarian
  TGI: 29.3 µM
OVCAR-4 ovarian
  TGI: 56.6 µM
NCI-H23 lung
  TGI: 32.2 µM
SR leukemia
  TGI: 29.5 µM
HL-60(TB) leukemia
  TGI: 34.2 µM
MDA-MB-231 breast
  TGI: 28.8 µM
SNB-19 CNS
  TGI: 29.5 µM
LOX IMVI melanoma
  TGI: 53.6 µM
CCRF-CEM leukemia
  TGI: 32.7 µM
MOLT-4 leukemia
  TGI: 27.7 µM
HT29 colon
  TGI: 30.1 µM
HCT-116 colon
  TGI: 29.4 µM
OVCAR-3 ovarian
  TGI: 28.4 µM
786-0 renal
  TGI: 29.9 µM
SK-MEL-28 melanoma
  TGI: 50.7 µM
UO-31 renal
  TGI: 30.6 µM
SK-MEL-5 melanoma
  TGI: 24.5 µM
ACHN renal
  TGI: 28.4 µM
TK-10 renal
  TGI: 30.8 µM
BT-549 breast
  TGI: 29.9 µM
UACC-257 melanoma
  TGI: 30.1 µM
EKVX NSCLC
  TGI: 30 µM
SK-MEL-2 melanoma
  TGI: 35.4 µM
T-47D breast
  TGI: 17.2 µM
SF-268 CNS
  TGI: 53.9 µM

## N#Cc1nc(COCc2ccccc2)oc1N
K-562 leukemia
  TGI: > 100 µM
M14 melanoma
  TGI: > 100 µM
HOP-62 NSCLC
  TGI: > 100 µM
SF-295 CNS
  TGI: > 100 µM
SF-539 CNS
  TGI: > 100 µM
HS 578T breast
  TGI: > 100 µM
A549 NSCLC
  TGI: > 100 µM
OVCAR-5 ovarian
  TGI: > 100 µM
KM12 colon
  TGI: > 100 µM
MDA-N
  TGI: > 100 µM
MDA-MB-435
  TGI: > 100 µM
RXF 393 renal
  TGI: > 100 µM
MCF7 breast
  TGI: > 100 µM
HOP-92 NSCLC
  TGI: > 100 µM
OVCAR-8 ovarian
  TGI: > 100 µM
NCI/ADR-RES ovarian
  TGI: > 100 µM
IGROV1 ovarian
  TGI: > 100 µM
COLO 205 colon
  TGI: > 100 µM
CAKI-1 renal
  TGI: > 100 µM
U251 CNS
  TGI: > 100 µM
SW-620 colon
  TGI: > 100 µM
SN12C renal
  TGI: > 100 µM
HCC-2998 colon
  TGI: > 100 µM
NCI-H226 lung
  TGI: > 100 µM
PC-3 prostate
  TGI: > 100 µM
SNB-75 CNS
  TGI: > 100 µM
DU-145 prostate
  TGI: > 100 µM
NCI-H522 lung
  TGI: > 100 µM
UACC-62 melanoma
  TGI: > 100 µM
HCT-15 colon
  TGI: > 100 µM
RPMI-8226 leukemia
  TGI: > 100 µM
MALME-3M melanoma
  TGI: > 100 µM
SK-OV-3 ovarian
  TGI: > 100 µM
OVCAR-4 ovarian
  TGI: > 100 µM
NCI-H23 lung
  TGI: > 100 µM
SR leukemia
  TGI: > 100 µM
MDA-MB-231 breast
  TGI: > 100 µM
SNB-19 CNS
  TGI: > 100 µM
LOX IMVI melanoma
  TGI: > 100 µM
CCRF-CEM leukemia
  TGI: > 100 µM
MOLT-4 leukemia
  TGI: > 100 µM
HT29 colon
  TGI: > 100 µM
HCT-116 colon
  TGI: > 100 µM
OVCAR-3 ovarian
  TGI: > 100 µM
786-0 renal
  TGI: > 100 µM
SK-MEL-28 melanoma
  TGI: > 100 µM
UO-31 renal
  TGI: > 100 µM
ACHN renal
  TGI: > 100 µM
TK-10 renal
  TGI: > 100 µM
BT-549 breast
  TGI: > 100 µM
UACC-257 melanoma
  TGI: > 100 µM
EKVX NSCLC
  TGI: > 100 µM
SK-MEL-2 melanoma
  TGI: > 100 µM
T-47D breast
  TGI: > 100 µM
SF-268 CNS
  TGI: > 100 µM

## COC1CCC(O)C(/C=C/[N+](=O)[O-])C1 (configuration not stated)
K-562 leukemia
  TGI: 22 µM
M14 melanoma
  TGI: 10.7 µM
HOP-62 NSCLC
  TGI: 19.1 µM
SF-295 CNS
  TGI: 23.9 µM
SF-539 CNS
  TGI: 16.6 µM
HS 578T breast
  TGI: 17.2 µM
A498 renal
  TGI: 14.2 µM
A549 NSCLC
  TGI: 42.9 µM
OVCAR-5 ovarian
  TGI: 21.5 µM
KM12 colon
  TGI: 16.9 µM
MDA-N
  TGI: 5.56 µM
MDA-MB-435
  TGI: 3.67 µM
RXF 393 renal
  TGI: 2.91 µM
MCF7 breast
  TGI: 12.9 µM
HOP-92 NSCLC
  TGI: 26.6 µM
OVCAR-8 ovarian
  TGI: 4.69 µM
NCI/ADR-RES ovarian
  TGI: 75.1 µM
IGROV1 ovarian
  TGI: 3.55 µM
COLO 205 colon
  TGI: 5.7 µM
CAKI-1 renal
  TGI: 38.4 µM
U251 CNS
  TGI: 8.04 µM
SW-620 colon
  TGI: > 100 µM
SN12C renal
  TGI: 9.05 µM
HCC-2998 colon
  TGI: 3.14 µM
NCI-H226 lung
  TGI: 5.96 µM
PC-3 prostate
  TGI: 6.01 µM
SNB-75 CNS
  TGI: 21.5 µM
DU-145 prostate
  TGI: 15.2 µM
NCI-H522 lung
  TGI: 23.2 µM
UACC-62 melanoma
  TGI: 19.3 µM
HCT-15 colon
  TGI: 4.69 µM
NCI-H460 lung
  TGI: 7.73 µM
RPMI-8226 leukemia
  TGI: 4.2 µM
SK-OV-3 ovarian
  TGI: 22.6 µM
OVCAR-4 ovarian
  TGI: 28.4 µM
NCI-H23 lung
  TGI: 16.6 µM
SR leukemia
  TGI: 5.43 µM
HL-60(TB) leukemia
  TGI: 5.29 µM
MDA-MB-231 breast
  TGI: 18.1 µM
SNB-19 CNS
  TGI: 23.6 µM
LOX IMVI melanoma
  TGI: 3.05 µM
CCRF-CEM leukemia
  TGI: > 100 µM
MOLT-4 leukemia
  TGI: 6.55 µM
HT29 colon
  TGI: 11.2 µM
HCT-116 colon
  TGI: 4.58 µM
OVCAR-3 ovarian
  TGI: 22.3 µM
786-0 renal
  TGI: 3.67 µM
SK-MEL-28 melanoma
  TGI: 54.9 µM
SK-MEL-5 melanoma
  TGI: 14.9 µM
ACHN renal
  TGI: 29.9 µM
TK-10 renal
  TGI: 16.1 µM
BT-549 breast
  TGI: 8.49 µM
UACC-257 melanoma
  TGI: 5.48 µM
EKVX NSCLC
  TGI: 15.1 µM
SK-MEL-2 melanoma
  TGI: 23.1 µM
T-47D breast
  TGI: 44.8 µM
SF-268 CNS
  TGI: 15 µM
